# From patent US11667701B2, “Anti-PfRH5 antibodies and antigen-binding fragments thereof” (priority 2018, dated 2023)
# Tested on: Plasmodium falciparum strain 3D7
# Test: Growth inhibition assay with or without chloroquine, strain 3D7 (Example 3)
# Format: cell-based
# Method: Each P. falciparum strain (BEI Resources) was first synchronized with 5% D-sorbitol following standard protocols at 3-5% hematocrit and 1-2% parasitaemia 20-24 hours prior to the start of the assay. Infected human erythrocytes were prepared at a starting parasitaemia of 0.4-0.7% and 2% hematocrit. Infected erythrocytes were combined with PfRH5-specific or control antibodies starting at a concentration of 666.67 nM with 1:5 serial dilution for each IgG1 antibody and chloroquine at one of two concentrations, 4.91 or 6.58 nM. […] The parasites were grown for 40-48 h until the schizont stage was reached (one complete life cycle). Parasite growth was stopped with three washes of cold PBS. Final parasitaemia was determined by measuring the parasite lactate dehydrogenase (LDH) activity. Percent growth inhibition was expressed relative to uninfected erythrocytes.
smiles,measurement,value
"CCN(CC)CCCC(C)Nc1ccnc2cc(Cl)ccc12 (stereo not shown) [chloroquine, reference compound]",1025 of chloroquine with the susceptible 3D7 strain,4.91 nM
